# Where two headings read alike, the source gives them in different places.
# Legend:
# [1] = molecular target: T1, K103N/Y181C double mutant RT (HIV-1 RT) (Human immunodeficiency virus type 1 group M subtype B, UniProt P03366, K702N/Y780C); experiment: biochemical
# T1 construct: mutations that occur in the reverse transcriptase segment of the pol gene
# Excerpt: (§1) Based upon testing of these compounds, as described below, it is known that they inhibit the RNA-dependent DNA polymerase activity of HIV-1 RT. […] Utilising the Reverse Transcriptase (RT) Assay described below, compounds can be tested for their ability to inhibit the RNA-dependent DNA polymerase activity of HIV-1 RT. Certain specific compounds described in the Examples which appear below, were so tested. The results of this testing appear in Table 4 as IC50 (nM) and Table 5 as EC50 (nM).
# (§2) Reverse TranscriptASE (RT) Assays
# (§3) The assays are as described in WO 01/96338A1, the contents of which are hereby incorporated herein. The results are listed in Tables 8 as IC50(nM) and EC50(nM).
# WT RT (HIV-1 RT) = molecular target: T2, WT RT (HIV-1 RT) (Human immunodeficiency virus type 1 group M subtype B, UniProt P03366); experiment: biochemical
# T2 construct: mutations that occur in the reverse transcriptase segment of the pol gene
# Excerpt: as §1, §2, §3
# [2] = molecular target: T3, V106A mutant RT (HIV-1 RT) (Human immunodeficiency virus type 1 group M subtype B, UniProt P03366, V705A); experiment: biochemical
# T3 construct: mutations that occur in the reverse transcriptase segment of the pol gene
# Excerpt: as §1, §2, §3
# [3] = molecular target: T4, Y188L mutant RT (HIV-1 RT) (Human immunodeficiency virus type 1 group M subtype B, UniProt P03366, Y787L); experiment: biochemical
# T4 construct: mutations that occur in the reverse transcriptase segment of the pol gene
# Excerpt: as §1, §2, §3
# [4] = test system: K103N/Y181C (HIV-1 double mutant strain); experiment: EC50 assay, K103N/Y181C strain; type: cell-based
# Excerpt: as §2, §3
# [5] = test system: WT RT (HIV-1 wild type strain); experiment: EC50 assay, WT RT strain; type: cell-based
# Excerpt: as §2, §3
# [6] = test system: V106A (HIV-1 mutant strain); experiment: EC50 assay, V106A strain; type: cell-based; settings: Human immunodeficiency virus 1, read-out: EC50 V106A (nM)
# Excerpt: as §2, §3
# [7] = Human immunodeficiency virus 1, read-out: EC50 K103N/Y181C (nM), K103N/Y181C double mutant
# [8] = Human immunodeficiency virus 1, read-out: EC50 WT RT (nM)
SMILES,IC50 [1] [nM],IC50 (WT RT (HIV-1 RT)) [nM],IC50 ([2]; IC50 V106A (nM)) [nM],IC50 ([3]; IC50 Y188L (nM)) [nM],"EC50 [4, 7] [nM]","EC50 [5, 8] [nM]",EC50 [6] [nM],"IC50 ([1]; K103N/Y181C double mutant RT, read-out: IC50 K103N/Y181C) [nM]","IC50 (WT RT (HIV-1 RT); wild type RT, read-out: IC50 WT RT) [nM]",IC50 ([2]; read-out: IC50 V106A) [nM],IC50 ([3]; read-out: IC50 Y188L) [nM],"EC50 ([4]; K103N/Y181C double mutant, read-out: EC50 K103N/Y181C) [nM]","EC50 ([5]; wild type, read-out: EC50 WT RT) [nM]","IC50 ([1]; read-out: IC50 K103N/Y181C, K103N/Y181C double mutant RT) [nM]","IC50 (WT RT (HIV-1 RT); read-out: IC50 WT RT, wild type RT) [nM]","EC50 ([4]; read-out: EC50 K103N/Y181C, K103N/Y181C double mutant) [nM]","EC50 ([5]; read-out: EC50 WT RT, wild type) [nM]"
CCN1c2ncc(CCOc3ccc(C(=O)O)c4c3CCN(C(=O)OC)C4)cc2C(=O)N(C)c2cccnc21 [Entry 7002],100 to 1000,< 100,> 1000,100 to 1000,< 100,< 100,100 to 1000,–,–,–,–,–,–,–,–,–,–
CCN1c2ncc(CCOc3ccc(C(=O)O)c4c3CCN(C(=O)N(C)C)C4)cc2C(=O)N(C)c2cccnc21 [Entry 7007],< 100,< 100,100 to 1000,100 to 1000,< 100,< 100,–,–,–,–,–,–,–,–,–,–,–
CCN1c2ncc(CCOc3ccc(C(=O)O)c4c3CCC4)cc2C(=O)N(C)c2cccnc21 [Entry 4001],100 to 1000,< 100,100 to 1000,> 1000,< 100,< 100,–,–,–,–,–,–,–,–,–,–,–
CCN1c2ncc(CCOc3ccc(C4CC4C(=O)O)c4ccccc34)cc2C(=O)N(C)c2ccc(F)nc21 (stereo not drawn) [Entry 1050],100 to 1000,< 100,100 to 1000,100 to 1000,100 to 1000,< 100,–,–,–,–,–,–,–,–,–,–,–
CCN1c2ncc(CCOc3ccc(CC(C)C(=O)O)c4ccccc34)cc2C(=O)N(C)c2cccnc21 (stereo not drawn) [Entry 1042],100 to 1000,< 100,> 1000,> 1000,< 100,< 100,–,–,–,–,–,–,–,–,–,–,–
CCN1c2ncc(CCOc3ccc(/C=C(\C)C(=O)O)c4ccccc34)cc2C(=O)N(C)c2cccnc21 [Entry 1035],100 to 1000,< 100,> 1000,> 1000,< 100,< 100,–,–,–,–,–,–,–,–,–,–,–
CCN1c2ncc(CCOc3ccc(/C=C(\C)C(=O)O)c4ccccc34)cc2C(=O)Nc2c(C)cc(Cl)nc21 [Entry 1040],100 to 1000,< 100,100 to 1000,> 1000,100 to 1000,< 100,–,–,–,–,–,–,–,–,–,–,–
CCN1c2ncc(CCOc3ccc(C(=O)O)c4c3CCC4)cc2C(=O)N(C)c2ccc(Cl)nc21 [Entry 4002],< 100,< 100,100 to 1000,100 to 1000,< 100,< 100,–,–,–,–,–,–,–,–,–,–,–
CCN1c2ncc(CCOc3ccc(/C=C/C(=O)O)c4ccccc34)cc2C(=O)Nc2c(C)ccnc21 [Entry 1031],100 to 1000,< 100,100 to 1000,> 1000,< 100,< 100,–,–,–,–,–,–,–,–,–,–,–
CCN1c2ncc(CCOc3ccc(CCC(=O)O)c4c3CCCC4)cc2C(=O)N(C)c2cccnc21 [Entry 5009],100 to 1000,< 100,> 1000,> 1000,< 100,< 100,–,–,–,–,–,–,–,–,–,–,–
CCN1c2ncc(CCOc3ccc(CC(=O)NN)c4ccccc34)cc2C(=O)N(C)c2cccnc21 [Entry 1015],< 100,< 100,100 to 1000,100 to 1000,< 100,< 100,–,–,–,–,–,–,–,–,–,–,–
CCN1c2ncc(CCOc3ccc(C(=O)O)c4c3CCCC4)cc2C(=O)N(C)c2ccc(F)nc21 [Entry 5003],100 to 1000,< 100,> 1000,100 to 1000,< 100,< 100,–,–,–,–,–,–,–,–,–,–,–
CCN1c2ncc(CCOc3ccc(CC(=O)NS(C)(=O)=O)c4ccccc34)cc2C(=O)N(C)c2cccnc21 [Entry 1019],–,–,–,–,–,–,–,100 to 1000,< 100,> 1000,> 1000,100 to 1000,< 100,–,–,–,–
CCN1c2ncc(CCOc3ccc(C(=O)O)c4c3CCCC4)cc2C(=O)N(C)c2ccc(C)nc21 [Entry 5004],100 to 1000,< 100,> 1000,100 to 1000,< 100,< 100,–,–,–,–,–,–,–,–,–,–,–
CCN1c2ncc(CCOc3ccc(C(=O)O)c4c3CCCC4)cc2C(=O)N(C)c2cccnc21 [Entry 5001],100 to 1000,< 100,> 1000,> 1000,< 100,< 100,100 to 1000,–,–,–,–,–,–,–,–,–,–
CCN1c2ncc(CCOc3ccc(C(=O)O)c4c3CCN(S(=O)(=O)N(C)C)C4)cc2C(=O)N(C)c2cccnc21 [Entry 7008],< 100,< 100,100 to 1000,100 to 1000,< 100,< 100,–,–,–,–,–,–,–,–,–,–,–
CCN1c2ncc(CCOc3ccc(CCC(=O)O)c4ccccc34)cc2C(=O)N(C)c2cccnc21 [Entry 1021],100 to 1000,< 100,> 1000,> 1000,< 100,< 100,–,–,–,–,–,–,–,–,–,–,–
CCN1c2ncc(CCOc3ccc4cc(CC(=O)NN)ccc4c3)cc2C(=O)N(C)c2cccnc21 [Entry 3005],100 to 1000,< 100,< 100,100 to 1000,< 100,< 100,–,–,–,–,–,–,–,–,–,–,–
CCN1c2ncc(CCOc3ccc(/C=C/C(=O)O)c4ccccc34)cc2C(=O)N(C)c2ccc(Cl)nc21 [Entry 2016],–,–,–,–,–,–,–,–,–,100 to 1000,100 to 1000,–,–,100 to 1000,< 100,100 to 1000,< 100
CCN1c2ncc(CCOc3ccc(/C=C/C(=O)O)c4ccccc34)cc2C(=O)N(C)c2cccnc21 [Entry 1028],100 to 1000,< 100,> 1000,100 to 1000,< 100,< 100,–,–,–,–,–,–,–,–,–,–,–
CCN1c2ncc(CCOc3ccc(NS(=O)(=O)C(F)(F)F)c4ccccc34)cc2C(=O)N(C)c2ccc(F)nc21 [Entry 2002],100 to 1000,< 100,> 1000,> 1000,< 100,< 100,100 to 1000,–,–,–,–,–,–,–,–,–,–
CCN1c2ncc(CCOc3ccc(CC(=O)O)c4ccccc34)cc2C(=O)N(C)c2ccc(F)nc21 [Entry 1009],100 to 1000,< 100,> 1000,> 1000,< 100,< 100,–,–,–,–,–,–,–,–,–,–,–
CCN1c2ncc(CCOc3ccc(CCC(=O)O)c4ccccc34)cc2C(=O)Nc2c(C)cc(Cl)nc21 [Entry 1025],100 to 1000,< 100,100 to 1000,> 1000,100 to 1000,< 100,–,–,–,–,–,–,–,–,–,–,–

# Source: patent publication US6673791B2, “Non-nucleoside reverse transcriptase inhibitors” (Boehringer Ingelheim (Canada) Ltd., priority 2001, dated 2004)
